# Laboratory results from patent US20070128217A1 (priority 2003, published 2007).
# Key:
# [1] = system: antibodies in sera from SARS patients (sera 1a, 1b, 2, 6, 37, 62, London, SARS-yellow, SARS-green); type: binding, human; set-up: Binding of serum 6 to linear peptides of protein X1 of SARS-CoV Urbani / Binding of serum 37 to linear peptides of protein X1 of SARS-CoV Urbani / Binding of serum 6 to looped/cyclic peptide (PEPSCAN-ELISA) / Binding of serum 37 to looped/cyclic peptide (PEPSCAN-ELISA) / Binding of serum 37 to looped/cyclic peptides of protein X1 of SARS-CoV Urbani / Binding of serum 6 to linear peptides of protein X2 / Binding of serum 37 to linear peptides of protein X2 / Binding of serum 37 to looped/cyclic peptides of protein X2 of SARS-CoV Urbani / Binding of serum 6 to linear peptides of protein M of SARS-CoV Urbani / Binding of serum 37 to linear peptides of protein M of SARS-CoV Urbani / Binding of serum 6 to looped/cyclic peptides of protein M of SARS-CoV Urbani / Binding of serum 37 to looped/cyclic peptides of protein M of SARS-CoV Urbani / Binding of serum 6 to linear peptides of protein X3 of SARS-CoV Urbani / Binding of serum 37 to linear peptides of protein X3 of SARS-CoV Urbani / Binding of serum 37 to looped/cyclic peptides of protein X3 of SARS-CoV Urbani / Binding of serum 6 to linear peptides of protein X4 of SARS-CoV Urbani / Binding of serum 37 to linear peptides of protein X4 of SARS-CoV Urbani / Binding of serum 37 to looped/cyclic peptides of protein X4 of SARS-CoV Urbani / Binding of serum 6 to linear peptides of protein X5 of SARS-CoV Urbani / Binding of serum 37 to linear peptides of protein X5 of SARS-CoV Urbani / Binding of serum 37 to looped/cyclic peptides of protein X5 of SARS-CoV Urbani / Binding of serum 6 to linear peptides of protein N of SARS-CoV Urbani / Binding of serum 37 to linear peptides of protein N of SARS-CoV Urbani / Binding of serum 6 to linear peptide (PEPSCAN-ELISA) / Binding of serum 1a to looped/cyclic peptides of protein N of SARS-CoV Urbani / Binding of serum 1b to looped/cyclic peptides of protein N of SARS-CoV Urbani / Binding of serum 2 to looped/cyclic peptides of protein N of SARS-CoV Urbani / Binding of serum 6 to looped/cyclic peptides of protein N of SARS-CoV Urbani / Binding of serum 37 to looped/cyclic peptides of protein N of SARS-CoV Urbani / Binding of serum 62 to looped/cyclic peptides of protein N of SARS-CoV Urbani / Binding of serum London to looped/cyclic peptides of protein N of SARS-CoV Urbani / Binding of serum SARS-green to looped/cyclic peptides of protein N of SARS-CoV Urbani: unit not given here
# [2] = system: control sera (pooled serum of ten healthy LUMC hospital workers; commercial negative donor pooled serum from the Dutch bloodbank); type: binding, human; set-up: Binding of Control serum LUMC to linear peptides / Binding of Control serum Blood-bank to linear peptides / Binding of Control serum LUMC to looped peptides / Binding of Control Serum Blood-Bank to Looped peptides / Binding of Control serum LUMC to linear peptides of the protein M of SARS-CoV Urbani / Binding of Control serum Blood-bank to linear peptides of the protein M of SARS-CoV Urbani / Binding of Control serum LUMC to looped peptides of the protein M of SARS-CoV Urbani / Binding of Control Serum Blood-Bank to Looped peptides of the protein M of SARS-CoV Urbani: unit not given here
# [3] = system: rabbit serum obtained by immunizing a rabbit with the SARS-CoV strain Frankfurt 1; type: binding; set-up: Binding of a rabbit serum to linear peptides / Binding of a rabbit serum to looped peptides / Rabbit serum linear peptides / Rabbit serum looped peptides / Binding of a rabbit serum to linear peptides of protein N of SARS-CoV Urbani (Rabbit serum linear peptides) / Binding of a rabbit serum to looped/cyclic peptides of protein N of SARS-CoV Urbani (Rabbit serum looped peptides): unit not given here
# [4] = system: recombinant human anti-SARS-CoV antibody 03-018; type: binding; set-up: Binding of antibody 03-018 to linear peptides of the N protein of SARS-CoV Urbani / Binding of antibody 03-018 to looped/cyclic peptides of the N protein of SARS-CoV Urbani: unit not given here
Sequence,Binding of serum 1a to linear peptides of protein N of SARS-CoV Urbani [1],Binding of serum 1a to looped/cyclic peptides of protein N of SARS-CoV Urbani [1],Binding of serum 1b to linear peptides of protein N of SARS-CoV Urbani [1],Binding of serum 1b to looped/cyclic peptides of protein N of SARS-CoV Urbani [1],Binding of serum 2 to linear peptides of protein N of SARS-CoV Urbani [1],Binding of serum 2 to looped/cyclic peptides of protein N of SARS-CoV Urbani [1],Binding of serum 6 to linear peptides of protein N of SARS-CoV Urbani [1],Binding of serum 6 to looped/cyclic peptides of protein N of SARS-CoV Urbani [1],Binding of serum 37 to linear peptides of protein N of SARS-CoV Urbani [1],Binding of serum 37 to looped/cyclic peptides of protein N of SARS-CoV Urbani [1],Binding of serum 62 to linear peptides of protein N of SARS-CoV Urbani [1],Binding of serum 62 to looped/cyclic peptides of protein N of SARS-CoV Urbani [1],Binding of serum London to linear peptides of protein N of SARS-CoV Urbani [1],Binding of serum London to looped/cyclic peptides of protein N of SARS-CoV Urbani [1],Binding of serum SARS-green to looped/cyclic peptides of protein N of SARS-CoV Urbani [1],Binding of serum SARS-yellow to looped/cyclic peptides of protein N of SARS-CoV Urbani [1],Binding of a rabbit serum to linear peptides of protein N of SARS-CoV Urbani (Rabbit serum linear peptides) [3],Binding of a rabbit serum to looped/cyclic peptides of protein N of SARS-CoV Urbani (Rabbit serum looped peptides) [3],Binding of antibody 03-018 to linear peptides of the N protein of SARS-CoV Urbani [4],Binding of antibody 03-018 to looped/cyclic peptides of the N protein of SARS-CoV Urbani [4],further results
MDDFSRQLQNSMSGA,0.2,0.4,0.1,0.1,0.3,0.4,0.2,0.1,0.8,0.4,0.7,0.4,0.8,0.3,0.3,0.2,0.2,0.4,0.2,0.2,Binding of serum SARS-green to linear peptides of protein N of SARS-CoV Urbani [1]: 0.6; Binding of serum SARS-yellow to linear peptides of protein N of SARS-CoV Urbani [1]: 0.7; Control Serum Blood-Bank Looped peptides [2]: 0.5; Control serum Blood-bank linear peptides [2]: 1.0; Control serum LUMC linear peptides [2]: 0.7; Control serum LUMC looped peptides [2]: 0.5
NKEGIVWVATEGALN,0.3,0.3,0.1,0.2,0.2,0.4,0.2,0.2,0.7,0.6,0.6,0.4,0.4,0.3,0.3,0.4,0.1,0.2,0.1,0.2,Binding of serum SARS-green to linear peptides of protein N of SARS-CoV Urbani [1]: 0.4; Binding of serum SARS-yellow to linear peptides of protein N of SARS-CoV Urbani [1]: 0.9; Binding of Control Serum Blood-Bank to Looped peptides [2]: 0.6; Binding of Control serum Blood-bank to linear peptides [2]: 0.7; Binding of Control serum LUMC to linear peptides [2]: 0.7; Binding of Control serum LUMC to looped peptides [2]: 0.6
NKHIDAYKTFPPTEP,0.2,0.3,0.1,0.1,0.1,0.2,0.2,0.1,0.6,0.4,0.5,0.3,0.5,0.3,0.3,0.2,0.0,0.3,0.1,0.2,Binding of serum SARS-green to linear peptides of protein N of SARS-CoV Urbani [1]: 0.3; Binding of serum SARS-yellow to linear peptides of protein N of SARS-CoV Urbani [1]: 0.6; Control Serum Blood-Bank Looped peptides [2]: 0.5; Control serum Blood-bank linear peptides [2]: 0.6; Control serum LUMC linear peptides [2]: 0.5; Control serum LUMC looped peptides [2]: 0.4
NQLESKVSGKGQQQQ,,0.4,,0.2,,0.5,,0.3,,0.6,,0.5,,0.5,0.3,0.6,0.2,0.5,0.1,0.3,Binding of serum 1a to linear peptide (PEPSCAN-ELISA) [1]: 0.3; Binding of serum 1b to linear peptide (PEPSCAN-ELISA) [1]: 0.2; Binding of serum 2 to linear peptide (PEPSCAN-ELISA) [1]: 0.3; Binding of serum 6 to linear peptide (PEPSCAN-ELISA) [1]: 0.2; Binding of serum 37 to linear peptide (PEPSCAN-ELISA) [1]: 0.7; Binding of serum 62 to linear peptide (PEPSCAN-ELISA) [1]: 0.8; Binding of serum London to linear peptide (PEPSCAN-ELISA) [1]: 0.6; Binding of serum SARS-green to linear peptide (PEPSCAN-ELISA) [1]: 0.5; Binding of serum SARS-yellow to linear peptide (PEPSCAN-ELISA) [1]: 0.7; Binding of Control Serum Blood-Bank to Looped peptides [2]: 0.7; Binding of Control serum Blood-bank to linear peptides [2]: 0.8; Binding of Control serum LUMC to linear peptides [2]: 0.9; Binding of Control serum LUMC to looped peptides [2]: 0.7
